# Laboratory results taken from PubChem BioAssay AID220 (DTP/NCI, 2004).
# Several values for one entry are separate records, joined by “and”; a condition that tells them apart may be missing. Equal entries are not always repeated. Results filed as inconclusive are left out.
# Tested on: CD8F1 mice, subcutaneous mammary adenocarcinoma, T/C%
# Test: NCI In Vivo Anticancer Drug Screen. Data for tumor model Mammary Adenocarcinoma CD8F1 (subcutaneous) in CD8F1
# Details: higher = larger tumour
# Summary of the method: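 Transplantable tumors were established in mice, animals were dosed with compound or vehicle, and survival or tumor size was then measured in both groups. The treated result was divided by the control result.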
# [1] = endpoint: median tumor weight (est.), dose: 25.0 mg/kg/injection, schedule: Q07DX005 (ip), vehicle: suspension in saline
# [2] = endpoint: median tumor weight (est.), dose: 50.0 mg/kg/injection, schedule: Q07DX005 (ip), vehicle: suspension in saline
# [3] = endpoint: median tumor weight (est.), dose: 200.0 mg/kg/injection, schedule: Q07DX005 (ip), vehicle: suspension in saline
structure (smiles),measurement,setting,value
C[CH2][Sn]([CH2]C)([O]S(C)(=O)=O)[O]S(C)(=O)=O,T/C,"endpoint: median tumor weight change, dose: 3.9 mg/kg/injection, schedule: Q01DX001 (ip), vehicle: saline",88 % of control
same,T/C,"endpoint: median tumor weight change, dose: 7.81 mg/kg/injection, schedule: Q01DX001 (ip), vehicle: saline",60 % of control
same,T/C,"endpoint: median tumor weight change, dose: 15.62 mg/kg/injection, schedule: Q01DX001 (ip), vehicle: saline",103 % of control
CC(=O)OCC1OC(n2ccc(N)nc2=O)C(OC(C)=O)C1OC(C)=O (configuration not stated),T/C,[1],159 % of control
same,T/C,[2],70 % of control
same,T/C,"endpoint: median tumor weight (est.), dose: 100.0 mg/kg/injection, schedule: Q07DX005 (ip), vehicle: suspension in saline",87 % of control
same,T/C,[3],88 % of control
same,T/C,"endpoint: median tumor weight (est.), dose: 400.0 mg/kg/injection, schedule: Q07DX005 (ip), vehicle: suspension in saline",96 % of control
same,T/C,"endpoint: median tumor weight (est.), dose: 800.0 mg/kg/injection, schedule: Q07DX005 (ip), vehicle: suspension in saline",6 % of control
COc1cc(C(=O)N/N=C/c2cccc([N+](=O)[O-])c2)cc(OC)c1OC,T/C,"endpoint: median tumor weight change, dose: 125.0 mg/kg/injection, schedule: Q01DX001 (ip), vehicle: saline with Tween-80",94 % of control
same,T/C,"endpoint: median tumor weight change, dose: 250.0 mg/kg/injection, schedule: Q01DX001 (ip), vehicle: saline with Tween-80",60 % of control
same,T/C,"endpoint: median tumor weight change, dose: 500.0 mg/kg/injection, schedule: Q01DX001 (ip), vehicle: saline with Tween-80",108 % of control
same,T/C,"endpoint: median tumor weight change, dose: 1000.0 mg/kg/injection, schedule: Q01DX001 (ip), vehicle: saline with Tween-80",115 % of control
same,T/C,"endpoint: median tumor weight change, dose: 2000.0 mg/kg/injection, schedule: Q01DX001 (ip), vehicle: saline with Tween-80",119 % of control
N=C(N)SCc1c2ccccc2c(CSC(=N)N)c2ccccc12,T/C,"endpoint: median tumor weight (est.), dose: 50.0 mg/kg/injection, schedule: Q07DX005 (ip), vehicle: saline",105 % of control and 119 % of control
same,T/C,"endpoint: median tumor weight (est.), dose: 100.0 mg/kg/injection, schedule: Q07DX005 (ip), vehicle: saline",107 % of control
same,T/C,"endpoint: median tumor weight (est.), dose: 200.0 mg/kg/injection, schedule: Q07DX005 (ip), vehicle: saline",25 % of control
same,T/C,"endpoint: median tumor weight change, dose: 50.0 mg/kg/injection, schedule: Q01DX001 (ip), vehicle: saline + alcohol",77 % of control
same,T/C,"endpoint: median tumor weight change, dose: 50.0 mg/kg/injection, schedule: Q01DX001 (ip), vehicle: suspension in saline",90 % of control
same,T/C,"endpoint: median tumor weight change, dose: 100.0 mg/kg/injection, schedule: Q01DX001 (ip), vehicle: saline + alcohol",99 % of control
same,T/C,"endpoint: median tumor weight change, dose: 100.0 mg/kg/injection, schedule: Q01DX001 (ip), vehicle: suspension in saline",102 % of control and 111 % of control
same,T/C,"endpoint: median tumor weight change, dose: 200.0 mg/kg/injection, schedule: Q01DX001 (ip), vehicle: saline + alcohol",58 % of control
same,T/C,"endpoint: median tumor weight change, dose: 200.0 mg/kg/injection, schedule: Q01DX001 (ip), vehicle: suspension in saline",84 % of control and 86 % of control
same,T/C,"endpoint: median tumor weight change, dose: 400.0 mg/kg/injection, schedule: Q01DX001 (ip), vehicle: saline + alcohol",31 % of control
Nc1cc(Cl)c2[nH]cnc2n1,T/C,"endpoint: median tumor weight change, dose: 62.5 mg/kg/injection, schedule: Q01DX001 (ip), vehicle: distilled water + Tween-80",76 % of control
same,T/C,"endpoint: median tumor weight change, dose: 62.5 mg/kg/injection, schedule: Q01DX001 (ip), vehicle: water",111 % of control
same,T/C,"endpoint: median tumor weight change, dose: 125.0 mg/kg/injection, schedule: Q01DX001 (ip), vehicle: distilled water + Tween-80",88 % of control
same,T/C,"endpoint: median tumor weight change, dose: 125.0 mg/kg/injection, schedule: Q01DX001 (ip), vehicle: water",100 % of control
same,T/C,"endpoint: median tumor weight change, dose: 250.0 mg/kg/injection, schedule: Q01DX001 (ip), vehicle: distilled water + Tween-80",58 % of control
same,T/C,"endpoint: median tumor weight change, dose: 250.0 mg/kg/injection, schedule: Q01DX001 (ip), vehicle: water",92 % of control
same,T/C,"endpoint: median tumor weight change, dose: 500.0 mg/kg/injection, schedule: Q01DX001 (ip), vehicle: distilled water + Tween-80",82 % of control
same,T/C,"endpoint: median tumor weight change, dose: 500.0 mg/kg/injection, schedule: Q01DX001 (ip), vehicle: water",73 % of control
same,T/C,"endpoint: median tumor weight change, dose: 1000.0 mg/kg/injection, schedule: Q01DX001 (ip), vehicle: distilled water + Tween-80",42 % of control
same,T/C,"endpoint: median tumor weight change, dose: 1000.0 mg/kg/injection, schedule: Q01DX001 (ip), vehicle: water",80 % of control
Nc1nc(=S)c2ncn(C3CC(O)C(CO)O3)c2[nH]1 (configuration not stated),T/C,"endpoint: median tumor weight (est.), dose: 10.0 mg/kg/injection, schedule: Q07DX005 (ip), vehicle: saline with Tween-80",17 % of control and 37 % of control
same,T/C,"endpoint: median tumor weight (est.), dose: 12.5 mg/kg/injection, schedule: Q07DX005 (ip), vehicle: suspension in saline",81 % of control
same,T/C,"endpoint: median tumor weight (est.), dose: 20.0 mg/kg/injection, schedule: Q07DX005 (ip), vehicle: saline with Tween-80",9 % of control and 21 % of control
same,T/C,[1],101 % of control
same,T/C,"endpoint: median tumor weight (est.), dose: 40.0 mg/kg/injection, schedule: Q07DX005 (ip), vehicle: saline with Tween-80",6 % of control and 7 % of control
same,T/C,[2],72 % of control
same,T/C,"endpoint: median tumor weight (est.), dose: 80.0 mg/kg/injection, schedule: Q07DX005 (ip), vehicle: saline with Tween-80",2 % of control and 5 % of control
same,T/C,[3],62 % of control
CCCCCC#CC1OC12CCCCC2 (configuration not stated),T/C,"endpoint: median tumor weight change, dose: 100.0 mg/kg/injection, schedule: Q01DX001 (ip), vehicle: saline with Tween-80",37 % of control
same,T/C,"endpoint: median tumor weight change, dose: 200.0 mg/kg/injection, schedule: Q01DX001 (ip), vehicle: saline with Tween-80",106 % of control
same,T/C,"endpoint: median tumor weight change, dose: 400.0 mg/kg/injection, schedule: Q01DX001 (ip), vehicle: saline with Tween-80",51 % of control
same,T/C,"endpoint: median tumor weight change, dose: 800.0 mg/kg/injection, schedule: Q01DX001 (ip), vehicle: saline with Tween-80",100 % of control
CN(Cc1cnc2nc(N)nc(N)c2n1)c1ccc(C(=O)N[C@@H](CCC(=O)O)C(=O)O)cc1,T/C,"endpoint: mean tumor weight (est.), dose: 20.0 mg/kg/injection, schedule: Q07DX006 (ip), vehicle: sodium bicarbonate",192 % of control
same,T/C,"endpoint: mean tumor weight (est.), dose: 75.0 mg/kg/injection, schedule: Q07DX004 (ip), vehicle: sodium bicarbonate",91 % of control
same,T/C,"endpoint: mean tumor weight (est.), dose: 100.0 mg/kg/injection, schedule: Q07DX004 (ip), vehicle: sodium bicarbonate",90 % of control
same,T/C,"endpoint: mean tumor weight, dose: 2.0 mg/kg/injection, schedule: Q01DX009 (ip), vehicle: saline",84 % of control
same,T/C,"endpoint: mean tumor weight, dose: 2.0 mg/kg/injection, schedule: Q01DX009 (ip), vehicle: sodium bicarbonate",234 % of control
same,T/C,"endpoint: mean tumor weight, dose: 4.0 mg/kg/injection, schedule: Q01DX009 (ip), vehicle: saline",44 % of control
same,T/C,"endpoint: mean tumor weight, dose: 4.0 mg/kg/injection, schedule: Q01DX009 (ip), vehicle: sodium bicarbonate",84 % of control
same,T/C,"endpoint: mean tumor weight, dose: 12.5 mg/kg/injection, schedule: Q07DX004 (ip), vehicle: saline",87 % of control
same,T/C,"endpoint: mean tumor weight, dose: 25.0 mg/kg/injection, schedule: Q07DX004 (ip), vehicle: saline",23 % of control
same,T/C,"endpoint: mean tumor weight, dose: 25.0 mg/kg/injection, schedule: Q07DX006 (ip), vehicle: saline",44 % of control
same,T/C,"endpoint: mean tumor weight, dose: 50.0 mg/kg/injection, schedule: Q07DX003 (ip), vehicle: sodium bicarbonate",50 % of control
same,T/C,"endpoint: mean tumor weight, dose: 50.0 mg/kg/injection, schedule: Q07DX004 (ip), vehicle: saline",26 % of control
same,T/C,"endpoint: mean tumor weight, dose: 50.0 mg/kg/injection, schedule: Q07DX006 (ip), vehicle: saline",93 % of control
same,T/C,"endpoint: mean tumor weight, dose: 100.0 mg/kg/injection, schedule: Q07DX003 (ip), vehicle: sodium bicarbonate",43 % of control
same,T/C,"endpoint: mean tumor weight, dose: 100.0 mg/kg/injection, schedule: Q07DX006 (ip), vehicle: saline",56 % of control
same,T/C,"endpoint: mean tumor weight, dose: 150.0 mg/kg/injection, schedule: Q07DX005 (ip), vehicle: sodium bicarbonate",107 % of control
same,T/C,"endpoint: mean tumor weight, dose: 200.0 mg/kg/injection, schedule: Q07DX005 (ip), vehicle: sodium bicarbonate",70 % of control
same,T/C,"endpoint: mean tumor weight, dose: 250.0 mg/kg/injection, schedule: Q07DX005 (ip), vehicle: sodium bicarbonate",45 % of control
same,T/C,"endpoint: median tumor weight (est.), dose: 2.5 mg/kg/injection, schedule: Q07DX005 (ip), vehicle: sodium bicarbonate",63 % of control
same,T/C,"endpoint: median tumor weight (est.), dose: 5.0 mg/kg/injection, schedule: Q07DX005 (ip), vehicle: sodium bicarbonate",110 % of control and 111 % of control
same,T/C,"endpoint: median tumor weight (est.), dose: 20.0 mg/kg/injection, schedule: Q07DX005 (ip), vehicle: sodium bicarbonate",112 % of control
same,T/C,"endpoint: median tumor weight (est.), dose: 40.0 mg/kg/injection, schedule: Q07DX005 (ip), vehicle: sodium bicarbonate",85 % of control and 107 % of control
same,T/C,"endpoint: median tumor weight (est.), dose: 80.0 mg/kg/injection, schedule: Q07DX005 (ip), vehicle: sodium bicarbonate",20 % of control
CCCCCCCCCCCCN1C(C)=CS/C1=C\C=C\c1scc(C)[n+]1CCCCCCCCCCCC,T/C,"endpoint: median tumor weight change, dose: 7.82 mg/kg/injection, schedule: Q01DX001 (ip), vehicle: saline with Tween-80",80 % of control
same,T/C,"endpoint: median tumor weight change, dose: 15.63 mg/kg/injection, schedule: Q01DX001 (ip), vehicle: saline with Tween-80",92 % of control
same,T/C,"endpoint: median tumor weight change, dose: 31.25 mg/kg/injection, schedule: Q01DX001 (ip), vehicle: saline with Tween-80",65 % of control
COc1cccc2c1C(=N)c1c(O)c3c(c(O)c1C2=O)C[C@@](O)(C(C)=O)C[C@@H]3OC1CC(N)C(O)C(C)O1 (some centres not stated),T/C,"endpoint: median tumor weight (est.), dose: 2.0 mg/kg/injection, schedule: Q07DX005 (ip), vehicle: saline",53 % of control
same,T/C,"endpoint: median tumor weight (est.), dose: 2.97 mg/kg/injection, schedule: Q07DX005 (ip), vehicle: saline",50 % of control
same,T/C,"endpoint: median tumor weight (est.), dose: 3.0 mg/kg/injection, schedule: Q07DX005 (ip), vehicle: saline",115 % of control
same,T/C,"endpoint: median tumor weight (est.), dose: 4.45 mg/kg/injection, schedule: Q07DX005 (ip), vehicle: saline",53 % of control
same,T/C,"endpoint: median tumor weight (est.), dose: 4.5 mg/kg/injection, schedule: Q07DX005 (ip), vehicle: saline",96 % of control
